Reference: patent US11447475B2, “Isoxazole N-linked carbamoyl cyclohexyl acids as LPA antagonists” (BRISTOL-MYERS SQUIBB COMPANY, priority 2017, dated 2022)
Like-named read-outs stand apart in the source and are kept apart here.

How the values were obtained:
nerve-injured mice = settings: pretreatment; cited from earlier work
IPF patients = settings: 26-week clinical trial in IPF patients; cited from earlier work
[1] = tested on: human foetal lung fibroblasts; settings: induced by BAL obtained from IPF patients; cited from earlier work
UUO mice = UUO mice treated with the antagonist, compared with LPA1 (−/−) mice; cited from earlier work
[2] = tested on: mouse epithelial renal cell line, MCT; settings: LPA treatment of MCT cells, co-treatment with antagonist; cited from earlier work
[3] = tested on: pancreatic cancer cell lines; settings: in response to LPA and peritoneal fluid (ascites) from pancreatic cancer patients; cited from earlier work
[4] = tested on: highly peritoneal metastatic pancreatic cancer cell line; settings: LPA-induced and ascites-induced; cited from earlier work
human LPA1 = target: T1, human LPA1 (Homo sapiens, UniProt Q92633); experiment: LPA1 functional antagonist assay (calcium flux); format: cell-based; settings: read-out: hLPA1 IC50
T1 construct: expressed in transfected cells; host or cells: Chinese hamster ovary (CHO) cells
Description: The effectiveness of compounds of the present invention as LPA1 inhibitors can be determined in an LPA1 functional antagonist assay as follows:
Chinese hamster ovary cells overexpressing human LPA1 were plated overnight (15,000 cells/well) in poly-D-lysine coated 384-well microplates (Greiner bio-one, Cat #781946) in DMEM/F12 medium (Gibco, Cat #11039). Following overnight culture, cells were loaded with calcium indicator dye (AAT Bioquest Inc, Cat #34601) for 30 minutes at 37° C. The cells were then equilibrated to room temperature for 30 minutes before the assay. Test compounds solubilized in DMSO were transferred to 384 well non-binding surface plates (Corning, Cat #3575) using the Labcyte Echo acoustic dispense and diluted with assay buffer [1×HBSS with calcium/magnesium (Gibco Cat #14025-092), 20 mM HEPES (Gibco Cat #15630-080) and 0.1% fatty acid free BSA (Sigma Cat #A9205)] to a final concentration of 0.5% DMSO. Diluted compounds were added to the cells by FDSS6000 (Hamamatsu) at final concentrations ranging from 0.08 nM to 5 μM. and were then incubated for 20 min at room temperature at which time LPA (Avanti Polar Lipids Cat #857130C) was added at final concentrations of 10 nM to stimulate the cells. […] IC50 values were determined by fitting data to a 4-parameter logistic equation (GraphPad Prism, San Diego Calif.).

[5] = CHO cells overexpressing human LPA1, inhibition of calcium flux induced by 10 nM LPA

T1 sequence (Q92633 whole entry): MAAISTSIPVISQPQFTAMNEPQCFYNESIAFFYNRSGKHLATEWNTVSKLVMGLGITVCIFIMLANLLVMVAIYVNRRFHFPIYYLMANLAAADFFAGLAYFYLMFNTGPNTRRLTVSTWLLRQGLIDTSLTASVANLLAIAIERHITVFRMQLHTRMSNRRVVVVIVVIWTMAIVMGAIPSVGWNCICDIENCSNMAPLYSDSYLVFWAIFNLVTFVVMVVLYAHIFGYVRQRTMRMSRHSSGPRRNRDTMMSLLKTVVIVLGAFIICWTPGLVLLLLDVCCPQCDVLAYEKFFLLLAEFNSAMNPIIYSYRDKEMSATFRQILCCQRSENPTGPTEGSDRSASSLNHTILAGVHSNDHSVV

Row | IC50 (human LPA1) | SMILES | also measured
1 | – | C[C@@H](N)[C@H]1CC[C@H](C(=O)Nc2ccncc2)CC1 [Example Y-27632] | allodynia and hyperalgesia (nerve-injured mice): completely abolished
2 | – | Cc1noc(-c2ccc(-c3ccc(C4(C(=O)O)CC4)cc3)cc2)c1NC(=O)O[C@H](C)c1ccccc1 [BMS-986020] | rate of FVC (forced vital capacity) decline (IPF patients): significantly reduce
3 | – | Cc1noc(-c2ccc(CSCCC(=O)O)cc2)c1NC(=O)OC(C)c1ccccc1Cl (centres unmarked) [Ki16425] | chemotaxis of human foetal lung fibroblasts [1]: blocked; development of renal fibrosis (UUO mice): closely resembled the profile of LPA1 (−/−) mice; induction of CTGF expression [2]: almost completely suppressed; in vitro migration [3]: effectively blocked; invasion activity [4]: blocked
4 | 1.14 µM | Cc1noc(-c2ccc(O[C@@H]3CCC[C@@H](C(=O)O)C3)cc2)c1CNC(=O)OC(C)C1CC1 (mixture of isomers) [Example 27] | –
5 | 0.016 µM | Cc1noc(-c2ccc(O[C@H]3CCC[C@H](C(=O)O)C3)cn2)c1CNC(=O)OCC1CCC1 [Example 7] | –
6 | – | Cc1noc(-c2ccc(O[C@H]3CCC[C@H](C(=O)O)C3)cn2)c1CNC(=O)OCc1ccc(F)cc1 [Example 1, (1S,3S)-3-((6-(4-(((((4-Fluorobenzyl)oxy)carbonyl)amino)methyl)-3-methylisoxazol-5-yl) Pyridin-3-yl)oxy)cyclohexanecarboxylic Acid] | IC50 (human LPA1; [5]): 0.009 µM
7 | 0.097 µM | Cc1noc(-c2ccc(O[C@H]3CCCC(C(=O)O)C3)cc2)c1CNC(=O)OCC1CC1C (mixture of isomers) [Example 14] | –
8 | 0.006 µM | CCCCCCOC(=O)NCc1c(C)noc1-c1ccc(O[C@H]2CCC[C@H](C(=O)O)C2)c(C)n1 [Example 44] | –
9 | 0.006 µM | Cc1nc(-c2onc(C)c2CN(C)C(=O)OCc2ccccc2)ccc1O[C@H]1CCC[C@H](C(=O)O)C1 [Example 49, (1S,3S)-3-((6-(4-((((Benzyloxy)carbonyl)(methyl)amino)methyl)-3-methyl-isoxazol-5-yl)-2-methylpyridin-3-yl)oxy)cyclohexanecarboxylic Acid] | –
10 | 0.229 µM | Cc1noc(-c2ccc(O[C@H]3CCC[C@H](C(=O)O)C3)cn2)c1CNC(=O)NCc1ccccc1 [Example 35, (1S,3S)-3-((6-(4-((3-benzylureido)methyl)-3-methylisoxazol-5-yl)pyridin-3-yl)oxy)cyclohexane-1-carboxylic Acid] | –
11 | 0.023 µM | CCC[C@H](C)OC(=O)NCc1c(C)noc1-c1ccc(O[C@H]2CCC[C@H](C(=O)O)C2)cn1 [Example 55, (1S,3S)-3-((6-(3-methyl-4-((((((S)-pentan-2-yl)oxy)carbonyl)amino) Methyl) Isoxazol-5-yl)pyridin-3-yl)oxy)cyclohexane-1-carboxylic Acid] | –
12 | 0.007 µM | Cc1noc(-c2ccc(O[C@H]3CCC[C@H](C(=O)O)C3)cn2)c1CNC(=O)OCCC(C)(C)C [Example 6] | –
13 | 0.008 µM | CCCCOC(=O)NCc1c(C)noc1-c1ccc(O[C@H]2CCC[C@H](C(=O)O)C2)c(C)n1 [Example 42] | –
14 | 0.046 µM | CCCCCCOC(=O)NCc1c(C)noc1-c1ccc(O[C@H]2CCC[C@H](C(=O)O)C2)cn1 [Example 36, (1S,3S)-3-((6-(4-((((hexyloxy)carbonyl)amino)methyl)-3-methylisoxazol-5-yl)pyridin-3-yl)oxy)cyclohexane-1-carboxylic Acid] | –
15 | 0.014 µM | CCCCOC(=O)NCc1c(C)noc1-c1ccc(O[C@H]2CCC[C@H](C(=O)O)C2)cn1 [Example 65] | –
16 | 0.063 µM | Cc1noc(-c2ccc(O[C@H]3CCC[C@H](C(=O)O)C3)cc2)c1CN(C)C(=O)OCc1ccccc1 [Example 13] | –
17 | 0.111 µM | Cc1noc(-c2cnc(O[C@H]3CCC[C@H](C(=O)O)C3)cn2)c1CNC(=O)OCc1ccccc1 (racemic) [Example 52, (±)-Trans-3-((5-(4-((((benzyloxy)carbonyl)amino)methyl)-3-methyl-isoxazol-5-yl)pyrazin-2-yl)oxy)cyclohexane-1-carboxylic Acid] | –
18 | 0.084 µM | Cc1noc(-c2ccc(O[C@H]3CCC[C@@H](C(=O)O)C3)cc2)c1NC(=O)O[C@H](C)C1CC1 (racemic) [Example 33] | –

Row | IC50 (human LPA1) | SMILES | also measured
19 | 0.293 µM | Cc1noc(-c2ccc(O[C@@H]3CCC[C@@H](C(=O)O)C3)cc2)c1CNC(=O)O[C@H](C)c1ccccc1 (mixture of isomers) [Example 17] | –
20 | 0.077 µM | Cc1noc(-c2ccc(O[C@H]3CCC[C@H](C(=O)O)C3)cn2)c1CNC(=O)OCCC1CC1 [Example 62] | –
21 | – | Cc1noc(-c2ccc(O[C@H]3CCC[C@H](C(=O)O)C3)cn2)c1CNS(=O)(=O)CCc1ccccc1 [Example 53, (1S,3S)-3-((6-(3-methyl-4-(((2-phenylethyl)sulfonamido)methyl)isoxazol-5-yl) Pyridin-3-yl)oxy)cyclohexane-1-carboxylic Acid] | IC50 (human LPA1; [5]): 0.004 µM
22 | 0.008 µM | CC[C@H](C)COC(=O)NCc1c(C)noc1-c1ccc(O[C@H]2CCC[C@H](C(=O)O)C2)cn1 [Example 61] | –
23 | 0.016 µM | Cc1noc(-c2ccc(O[C@H]3CCC[C@H](C(=O)O)C3)cn2)c1CNC(=O)OCC1CC1(C)C (some centres unmarked) [Example 63] | –
24 | 0.063 µM | Cc1noc(-c2ccc(O[C@@H]3CCC[C@@H](C(=O)O)C3)cc2)c1CNC(=O)OCCC(C)C (racemic) [Example 24] | –
25 | 0.255 µM | Cc1noc(-c2ccc(O[C@H]3CCC[C@H](C(=O)O)C3)cn2)c1CNC(=O)CCc1ccccc1 [Example 54, (1S,3S)-3-((6-(3-methyl-4-((3-phenylpropanamido)methyl)isoxazol-5-yl)pyridin-3-yl)oxy)cyclohexane-1-carboxylic Acid] | –
26 | 0.0055 µM | Cc1noc(-c2ccc(O[C@H]3CCC[C@H](C(=O)O)C3)cn2)c1CNC(=O)OCC1CC(C)(C)C1 [Example 8] | –
27 | – | Cc1nc(-c2onc(C)c2CNS(=O)(=O)Cc2ccccc2)ccc1O[C@H]1CCC[C@H](C(=O)O)C1 [Example 51, (1S,3S)-3-((2-methyl-6-(3-methyl-4-(((phenylmethyl)sulfonamido)methyl) Isoxazol-5-yl)pyridin-3-yl)oxy)cyclohexane-1-carboxylic Acid] | IC50 (human LPA1; [5]): 0.62 µM
28 | 0.407 µM | Cc1noc(-c2ccc(O[C@@H]3CCC[C@@H](C(=O)O)C3)cc2)c1CNC(=O)OCC1CCC1 (racemic) [Example 29] | –
29 | 0.005 µM | Cc1nc(-c2onc(C)c2CNC(=O)OCc2ccccc2)ccc1O[C@H]1CCC[C@H](C(=O)O)C1 [Example 48] | –
30 | 0.197 µM | Cc1noc(-c2ccc(O[C@H]3CCC[C@H](C(=O)O)C3)cc2)c1CNC(=O)OCc1cccc(Cl)c1 [Example 11] | –
31 | 0.037 µM | Cc1nc(-c2onc(C)c2CNC(=O)OCC(C)C)ccc1O[C@H]1CCC[C@H](C(=O)O)C1 [Example 39] | –
32 | – | Cc1noc(-c2ccc(O[C@H]3CCC[C@H](C(=O)O)C3)cn2)c1CNC(=O)OCc1cccc(F)c1 [Example 3] | IC50 (human LPA1; [5]): 0.005 µM
33 | 0.263 µM | Cc1noc(-c2ccc(O[C@@H]3CCC[C@@H](C(=O)O)C3)cc2)c1CNC(=O)OCCC1CC1 [Example 28] | –
34 | 0.084 µM | Cc1noc(-c2ccc(O[C@H]3CCC[C@H](C(=O)O)C3)cc2)c1NC(=O)O[C@H](C)C1CC1 (single isomer, unassigned) [Example 32] | –
35 | 0.02 µM | CCCOC(=O)NCc1c(C)noc1-c1ccc(O[C@H]2CCC[C@H](C(=O)O)C2)c(C)n1 [Example 41] | –
36 | 0.275 µM | COCCOC(=O)NCc1c(C)noc1-c1ccc(O[C@H]2CCC[C@H](C(=O)O)C2)c(C)n1 [Example 46] | –

Row | SMILES | IC50 (human LPA1) | also measured
37 | Cc1nc(-c2onc(C)c2CNC(=O)OC(C)(C)C)ccc1O[C@H]1CCC[C@H](C(=O)O)C1 [Example 50, (1S,3S)-3-((6-(4-(((tert-butoxycarbonyl)amino)methyl)-3-methylisoxazol-5-yl)-2-methylpyridin-3-yl)oxy)cyclohexane-1-carboxylic Acid] | 0.044 µM | –
